Measured values reported in ChEMBL document CHEMBL2034849, “Discovery of a Potent Dihydrooxadiazole Series of Non-ATP-Competitive MK2 (MAPKAPK2) Inhibitors” (ACS Med Chem Lett, 2012).
Converted amounts (≈) assume the structure as drawn. The source made the active and inactive calls. The calls are words filed in the database; no cut-off is given here.

Assays:
[1] = biological target: T1, MAP kinase-activated protein kinase 2 (Homo sapiens, UniProt P49137); assay: Inhibition of MK2 using 5TAMRA-KKLNRTLSVA-COOH as substrate incubated for 30 mins prior to substrate addition measured after 30 mins by immobilized metal ion affinity-based fluorescence polarization assay in presence of 100 uM ATP
Target sequence in this assay (P49137 whole entry): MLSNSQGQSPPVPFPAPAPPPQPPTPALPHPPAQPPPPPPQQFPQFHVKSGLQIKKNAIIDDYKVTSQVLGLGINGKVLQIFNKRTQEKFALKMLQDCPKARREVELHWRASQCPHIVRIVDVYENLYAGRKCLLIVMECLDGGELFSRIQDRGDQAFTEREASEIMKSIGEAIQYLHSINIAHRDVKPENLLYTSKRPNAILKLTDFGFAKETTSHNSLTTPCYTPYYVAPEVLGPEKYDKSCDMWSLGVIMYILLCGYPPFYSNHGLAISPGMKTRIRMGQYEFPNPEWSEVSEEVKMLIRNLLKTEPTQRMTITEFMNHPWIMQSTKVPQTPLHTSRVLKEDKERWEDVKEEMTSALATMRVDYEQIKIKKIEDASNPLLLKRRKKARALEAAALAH

[2] = biological target: T1, MAP kinase-activated protein kinase 2; assay: Inhibition of MK2 in human THP1 cells assessed as inhibition of LPS-induced HSP27 Ser78 phosphorylation incubated for 60 mins prior to LPS-induction measured after 60 mins; assay type: cell-based, THP-1
Target sequence in this assay (P49137 whole entry): as above

[3] = Plasma protein binding in human; assay type: ADME, cell-free; conditions: read-out: PPB (converted)
[4] = Plasma protein binding in rat; assay type: ADME, cell-free; conditions: read-out: PPB (converted)
[5] = Solubility of the compound in 2% DMSO at pH 7.4; assay type: physicochemical
[6] = Clearance in rat hepatocyte assessed per million cells; assay type: ADME, cell-based; conditions: hepatocytes, read-out: CLH
Caco-2 = assay: Permeability across human Caco2 cells; assay type: ADME, cell-based
[7] = Solubility of the compound in 10 mM sodium phosphate buffer at pH 7.4; assay type: physicochemical
[8] = biological target: T1, MAP kinase-activated protein kinase 2; assay: Non-competitive inhibition of MK2 using 5TAMRA-KKLNRTLSVA-COOH as substrate by immobilized metal ion affinity-based fluorescence polarization assay in presence of 1 to 100 uM ATP
Target sequence in this assay (P49137 whole entry, looked up): as the sequence (P49137 whole entry) above

IC50 [1] [nM]	Structure (SMILES)	other results
60	Fc1ccc(C2ON=C(c3ccc(-c4ccc(Cl)cc4)o3)N2c2ccc(N3CCNCC3)cc2)nc1 (stereo not drawn)	EC50 [2]: 3700 nM
50	Clc1ccc(-c2ccc(C3=NOC(c4cccnc4)N3c3ccc(N4CCNCC4)cc3)o2)cc1 (stereo not drawn)	–
3700	Clc1ccc(-c2ccc(C3ON=C(c4ccccc4)N3c3ccc(N4CCNCC4)cc3)o2)cc1 (stereo not drawn)	–
30	Clc1ccc(-c2ccc(C3=NOC(c4ccccn4)N3c3ccc(N4CCNCC4)cc3)o2)cc1 (stereo not drawn)	EC50 [2]: 3000 nM
> 10000	Clc1ccc(-c2ccc(C3=NOC(c4ccncc4)N3Cc3ccc(N4CCNCC4)cc3)o2)cc1 (stereo not drawn)	–
8	N#Cc1ccc(-c2ccc(C3=NOC(c4ccccc4-c4cncnc4)N3c3ccc(N4CCNCC4)cc3)o2)cc1 (stereo in doubt; 33)	EC50 [2]: 1200 nM
100	Fc1ccc(C2ON=C(c3ccc(-c4ccc(Cl)cc4)o3)N2c2ccc(N3CCNCC3)cc2)c(F)c1 (stereo not drawn)	–
220	Fc1cc(-c2ccc(C3=NOC(c4ccccc4-c4cncnc4)N3c3ccc(N4CCNCC4)cc3)o2)ccc1Cl (stereo not drawn)	–
70	Clc1ccc(-c2ccc(C3=NOC(c4cnc[nH]4)N3c3ccc(N4CCNCC4)cc3)o2)cc1 (stereo not drawn)	EC50 [2]: 2400 nM
6	N#Cc1ccc(-c2ccc(C3=NOC(c4ccccc4-c4cncnc4)N3c3ccc(N4CCNCC4)cc3)o2)cc1 (stereo in doubt; 38) [listing 1 of 2 here]	fraction unbound [3]: 0.035; fraction unbound [4]: 0.031; solubility [5]: 20 µM (≈ 11.1 µg/mL); hepatocyte CLint [6]: 35 µL/min/1e6 cells; EC50 [2]: 170 nM; permeability (Caco-2): permeable; solubility [7]: 20 µM (≈ 11.1 µg/mL)
340	N#Cc1ccc(-c2ccc(C3=NOC(c4ccccc4-c4cncnc4)N3c3ccc(N4CCNCC4)cc3)o2)cc1 (single isomer, unassigned; enantiomer 2)	–
970	Clc1ccc(-c2ccc(C3=NOC(c4ccccc4-c4cncnc4)N3c3ccc(N4CCNCC4)cc3)o2)cc1Cl (stereo not drawn)	–
> 10000	FC1(F)CCN(c2ccc(N3C(c4ccc(-c5ccc(Cl)cc5)o4)=NOC3c3ccncc3)cc2)CC1 (stereo not drawn)	–
50	Fc1ccc(-c2ccc(C3=NOC(c4ccccc4-c4cncnc4)N3c3ccc(N4CCNCC4)cc3)o2)cc1 (stereo not drawn)	EC50 [2]: 760 nM
790	c1ccc(C2ON=C(c3ccc(-c4ccncc4)o3)N2c2ccc(N3CCNCC3)cc2)c(-c2cncnc2)c1 (stereo not drawn)	–
1400	Clc1ccc(-c2ccc(C3=NOCCCN3c3ccc(N4CCNCC4)cc3)o2)cc1	–
310	COc1ccc(-c2ccc(C3=NOC(c4ccccc4-c4cncnc4)N3c3ccc(N4CCNCC4)cc3)o2)cc1 (stereo not drawn)	–
190	Fc1cc(F)cc(C2ON=C(c3ccc(-c4ccc(Cl)cc4)o3)N2c2ccc(N3CCNCC3)cc2)c1 (stereo not drawn)	–
> 10000	Clc1ccc(-c2ccc(-c3cc(-c4ccc(N5CCNCC5)cc4)on3)o2)cc1	–
5300	N#Cc1cccc(-c2ccc(C3=NOC(c4ccccc4-c4cncnc4)N3c3ccc(N4CCNCC4)cc3)o2)c1 (stereo not drawn)	–
190	Clc1ccc(-c2ccc(C3=NOC(c4ccncc4)N3c3ccc(C4CCNCC4)cc3)o2)cc1 (stereo not drawn)	–
6200	O=c1onc(-c2ccc(-c3ccc(Cl)cc3)o2)n1-c1ccc(N2CCNCC2)cc1	–
> 10000	CNC(=O)c1ccc(-c2ccc(C3=NOC(c4ccccc4-c4cncnc4)N3c3ccc(N4CCNCC4)cc3)o2)cc1 (stereo not drawn)	–
60	Clc1ccc(-c2ccc(C3=NOC(c4ccncn4)N3c3ccc(N4CCNCC4)cc3)o2)cc1 (stereo not drawn)	–
30	Clc1ccc(-c2ccc(C3=NOC(c4ccncc4)N3c3ccc(N4CCNCC4)cc3)o2)cc1 (stereo not drawn)	EC50 [2]: 2700 nM
160	Fc1ccc(C2ON=C(c3ccc(-c4ccc(Cl)cc4)o3)N2c2ccc(N3CCNCC3)cc2)cc1 (stereo not drawn)	–
1300	Clc1cccc(-c2ccc(C3=NOC(c4ccccc4-c4cncnc4)N3c3ccc(N4CCNCC4)cc3)o2)c1 (stereo not drawn)	–
110	N#Cc1ccc(-c2ccc(C3=NOCCN3c3ccc(N4CCNCC4)cc3)o2)cc1	–
–	N#Cc1ccc(-c2ccc(C3=NOC(c4ccccc4-c4cncnc4)N3c3ccc(N4CCNCC4)cc3)o2)cc1 (stereo in doubt; 38) [listing 2 of 2 here]	inhibition [8]: Active
3400	Clc1ccc(-c2ccc(-c3nocc3-c3ccc(N4CCNCC4)cc3)o2)cc1	–
